Test results published in patent publication US20220089568A1 (Janssen Biotech, Inc., priority 2019, published 2022).
Blank lines part the entries; values can stand above or below the molecule they belong to.

What was measured:
MOLM-13 cells = experiment: MOLM-13 Cellular Assay; format: cell-based; settings: Homo sapiens, 72 hours exposure, cell viability by CellTiter-Glo
Protocol: The day prior to assay set-up, cells were pelleted, resuspended in fresh media, counted, and cells were plated at 0.4×10^6 cell/mL in a T150 flask. […] Cells were exposed to different concentrations of test compounds at 37° C., 5% CO2 for 72 hours immediately after seeding.

human DHODH = molecular target: T1, human DHODH (Homo sapiens, UniProt Q02127); experiment: DHODH Enzymatic Assay; format: biochemical; settings: purified human DHODH; DCIP absorbance, end-point mode
T1 construct: purchased Proteros PR-0044
Protocol: To detect DHODH enzyme activities, dichloroindophenol (DCIP) is added as the final electron acceptor in the assay. DCIP can accept electrons from the reduced coenzyme Q generated in the assay, or from dihydroorotate (DHO) via FMN by binding presumably to the ubiquinone pocket. […] The assay buffer contained […], pH 7.5, 150 mM NaCl, 0.5 mM EDTA, and 0.1% Triton X-100 in MilliQ water. Substrate consisting of 20 mM DHO, 5 mM CoQ6, and 1 mM DCIP in assay buffer, initiates the reaction. […] Absorbance measurements were obtained using the BMG Phera Star plate-reading spectrophotomer. Purified human DHODH was purchased from Proteros (cat. No. PR-0044). Chemicals were purchased from Sigma-Aldrich, Teknova, and Avanti Polar Lipids. Liquid handling was performed using Labcyte Echo and Formulatrix Tempest.

T1 sequence (Q02127 whole entry): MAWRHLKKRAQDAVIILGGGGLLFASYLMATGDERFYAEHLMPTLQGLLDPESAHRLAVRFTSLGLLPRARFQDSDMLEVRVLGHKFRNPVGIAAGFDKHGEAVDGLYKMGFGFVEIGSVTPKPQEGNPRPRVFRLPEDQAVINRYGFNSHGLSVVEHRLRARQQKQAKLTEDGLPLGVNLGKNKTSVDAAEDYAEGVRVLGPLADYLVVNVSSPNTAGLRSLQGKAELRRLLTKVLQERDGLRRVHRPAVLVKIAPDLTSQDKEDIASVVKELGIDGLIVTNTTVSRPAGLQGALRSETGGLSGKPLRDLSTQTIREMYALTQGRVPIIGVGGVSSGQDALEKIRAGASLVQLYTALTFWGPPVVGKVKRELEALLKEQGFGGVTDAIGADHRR

SMILES: CCn1c(CO)nn(-c2nc(OC3CC(F)(F)C3(F)F)c(C(=O)Nc3c(F)cccc3Cl)cc2F)c1=O (racemic) [Example 8, Racemic-N-(2-Chloro-6-fluorophenyl)-6-(4-ethyl-3-(hydroxymethyl)-5-oxo-4,5-dihydro-1H-1,2,4-triazol-1-yl)-5-fluoro-2-(2,2,3,3-tetrafluorocyclobutoxy)nicotinamide]
EC50 (MOLM-13 cells): 15.7 nM
EC50 (human DHODH): 22.1 nM

SMILES: CCn1c(CO)nn(-c2nc(O[C@@H](C)C(F)(F)F)c(C(=O)Nc3c(F)cccc3Cl)cc2F)c1=O [Example 1, (S)-N-(2-Chloro-6-fluorophenyl)-6-(4-ethyl-3-(hydroxymethyl)-5-oxo-4,5-dihydro-1H-1,2,4-triazol-1-yl)-5-fluoro-2-((1,1,1-trifluoropropan-2-yl)oxy)nicotinamide]
EC50 (MOLM-13 cells): 0.156 nM
EC50 (human DHODH): 0.237 nM

SMILES: CCn1c(CO)nn(-c2nc(O[C@@H](C)C(F)(F)F)c(C(=O)Nc3ccccc3F)cc2F)c1=O [Example 2, (S)-6-(4-Ethyl-3-(hydroxymethyl)-5-oxo-4,5-dihydro-1H-1,2,4-triazol-1-yl)-5-fluoro-N-(2-fluorophenyl)-2-((1,1,1-trifluoropropan-2-yl)oxy)nicotinamide]
EC50 (MOLM-13 cells): 5.2 nM
EC50 (human DHODH): 6.1 nM

SMILES: CCn1c(CF)nn(-c2nc(O[C@@H](C)C(F)(F)F)c(C(=O)Nc3c(F)cccc3Cl)cc2F)c1=O [Example 3, (S)-N-(2-Chloro-6-fluorophenyl)-6-(4-ethyl-3-(fluoromethyl)-5-oxo-4,5-dihydro-1H-1,2,4-triazol-1-yl)-5-fluoro-2-((1,1,1-trifluoropropan-2-yl)oxy)nicotinamide]
EC50 (MOLM-13 cells): 0.037 nM
EC50 (human DHODH): 0.245 nM

SMILES: CCn1c(CO)nn(-c2nc(O[C@@H](C)C(F)(F)F)c(C(=O)Nc3c(C)ccnc3Cl)cc2F)c1=O [Example 5, (S)-N-(2-Chloro-4-methylpyridin-3-yl)-6-(4-ethyl-3-(hydroxymethyl)-5-oxo-4,5-dihydro-1H-1,2,4-triazol-1-yl)-5-fluoro-2-((1,1,1-trifluoropropan-2-yl)oxy)nicotinamide]
EC50 (MOLM-13 cells): 2 nM
EC50 (human DHODH): 1.2 nM

SMILES: CCn1c(CCl)nn(-c2nc(O[C@@H](C)C(F)(F)F)c(C(=O)Nc3c(F)cccc3Cl)cc2F)c1=O [Example 6, (S)-N-(2-Chloro-6-fluorophenyl)-6-(3-(chloromethyl)-4-ethyl-5-oxo-4,5-dihydro-1H-1,2,4-triazol-1-yl)-5-fluoro-2-((1,1,1-trifluoropropan-2-yl)oxy)nicotinamide]
EC50 (MOLM-13 cells): 1.47 nM
EC50 (human DHODH): 0.369 nM

SMILES: CCn1c(CO)nn(-c2nc(OC(C)C)c(C(=O)Nc3c(F)cccc3Cl)cc2F)c1=O [Example 7, N-(2-Chloro-6-fluorophenyl)-6-(4-ethyl-3-(hydroxymethyl)-5-oxo-4,5-dihydro-1H-1,2,4-triazol-1-yl)-5-fluoro-2-isopropoxynicotinamide]
EC50 (MOLM-13 cells): 0.219 nM
EC50 (human DHODH): 0.5 nM

SMILES: CCn1c(CO)nn(-c2nc(O[C@@H](C)C(F)(F)F)c(C(=O)Nc3ccncc3Cl)cc2F)c1=O [Example 10, (S)-N-(3-Chloropyridin-4-yl)-6-(4-ethyl-3-(hydroxymethyl)-5-oxo-4,5-dihydro-1H-1,2,4-triazol-1-yl)-5-fluoro-2-((1,1,1-trifluoropropan-2-yl)oxy)nicotinamide]
EC50 (MOLM-13 cells): 60.9 nM
EC50 (human DHODH): 22.9 nM

SMILES: CCn1c(CO)nn(-c2nc(O[C@@H](C)C(F)(F)F)c(C(=O)Nc3cc(C)ccc3F)cc2F)c1=O [Example 11, (S)-6-(4-Ethyl-3-(hydroxymethyl)-5-oxo-4,5-dihydro-1H-1,2,4-triazol-1-yl)-5-fluoro-N-(2-fluoro-5-methylphenyl)-2-((1,1,1-trifluoropropan-2-yl)oxy)nicotinamide]
EC50 (MOLM-13 cells): 0.5 nM
EC50 (human DHODH): < 1.69 nM

SMILES: CCn1c(CO)nn(-c2nc(O[C@@H](C)C(F)(F)F)c(C(=O)Nc3cnsc3)cc2F)c1=O [Example 12, (S)-6-(4-Ethyl-3-(hydroxymethyl)-5-oxo-4,5-dihydro-1H-1,2,4-triazol-1-yl)-5-fluoro-N-(isothiazol-4-yl)-2-((1,1,1-trifluoropropan-2-yl)oxy)nicotinamide]
EC50 (MOLM-13 cells): 672 nM
EC50 (human DHODH): 324 nM

SMILES: CCn1c(CO)nn(-c2nc(O[C@@H](C)C(F)(F)F)c(C(=O)Nc3cnsc3Br)cc2F)c1=O [Example 15, (S)-N-(5-Bromoisothiazol-4-yl)-6-(4-ethyl-3-(hydroxymethyl)-5-oxo-4,5-dihydro-1H-1,2,4-triazol-1-yl)-5-fluoro-2-((1,1,1-trifluoropropan-2-yl)oxy)nicotinamide]
EC50 (MOLM-13 cells): 2.5 nM
EC50 (human DHODH): 3.1 nM

SMILES: CCn1c(CO)nn(-c2nc(O[C@@H](C)C(F)(F)F)c(C(=O)Nc3ccnnc3Cl)cc2F)c1=O [Example 16, (S)-N-(3-Chloropyridazin-4-yl)-6-(4-ethyl-3-(hydroxymethyl)-5-oxo-4,5-dihydro-1H-1,2,4-triazol-1-yl)-5-fluoro-2-((1,1,1-trifluoropropan-2-yl)oxy)nicotinamide]
EC50 (MOLM-13 cells): > 1000 nM
EC50 (human DHODH): 734 nM

SMILES: CCn1c(CO)nn(-c2nc(O[C@@H](C)C(F)(F)F)c(C(=O)Nc3cc[nH]c(=O)c3Cl)cc2F)c1=O [Example 20, (S)-N-(3-Chloro-2-oxo-1,2-dihydropyridin-4-yl)-6-(4-ethyl-3-(hydroxymethyl)-5-oxo-4,5-dihydro-1H-1,2,4-triazol-1-yl)-5-fluoro-2-((1,1,1-trifluoropropan-2-yl)oxy)nicotinamide]
EC50 (MOLM-13 cells): 108 nM
EC50 (human DHODH): 4.3 nM

SMILES: CCn1c(CO)nn(-c2nc(O[C@@H](C)C(F)(F)F)c(C(=O)Nc3nc(OC)ccc3Cl)cc2F)c1=O [Example 21, (S)-N-(3-chloro-6-methoxypyridin-2-yl)-6-(4-ethyl-3-(hydroxymethyl)-5-oxo-4,5-dihydro-1H-1,2,4-triazol-1-yl)-5-fluoro-2-((1,1,1-trifluoropropan-2-yl)oxy)nicotinamide]
EC50 (MOLM-13 cells): 1.8 nM
EC50 (human DHODH): 1.2 nM

Further molecules by falling EC50 (MOLM-13 cells), results first:

EC50 (MOLM-13 cells): 87.9 nM
EC50 (human DHODH): 30.9 nM
SMILES: CCn1c(CO)nn(-c2nc(O[C@@H](C)C(F)(F)F)c(C(=O)Nc3csnc3C)cc2F)c1=O [Example 17, (S)-6-(4-Ethyl-3-(hydroxymethyl)-5-oxo-4,5-dihydro-1H-1,2,4-triazol-1-yl)-5-fluoro-N-(3-methylisothiazol-4-yl)-2-((1,1,1-trifluoropropan-2-yl)oxy)nicotinamide]

EC50 (MOLM-13 cells): 51.3 nM
EC50 (human DHODH): 40.4 nM
SMILES: CCn1c(CO)nn(-c2nc(O[C@@H](C)C(F)(F)F)c(C(=O)Nc3nccnc3Cl)cc2F)c1=O [Example 19, (S)-N-(3-Chloropyrazin-2-yl)-6-(4-ethyl-3-(hydroxymethyl)-5-oxo-4,5-dihydro-1H-1,2,4-triazol-1-yl)-5-fluoro-2-((1,1,1-trifluoropropan-2-yl)oxy)nicotinamide]

EC50 (MOLM-13 cells): 18.5 nM
EC50 (human DHODH): 31.8 nM
SMILES: CCn1c(CO)nn(-c2nc(OC3CCOC3)c(C(=O)Nc3c(F)cccc3Cl)cc2F)c1=O (racemic) [Example 9, Racemic-N-(2-Chloro-6-fluorophenyl)-6-(4-ethyl-3-(hydroxymethyl)-5-oxo-4,5-dihydro-1H-1,2,4-triazol-1-yl)-5-fluoro-2-((tetrahydrofuran-3-yl)oxy)nicotinamide]

EC50 (MOLM-13 cells): 12.8 nM
EC50 (human DHODH): 3.7 nM
SMILES: CCn1c(CO)nn(-c2nc(O[C@@H](C)C(F)(F)F)c(C(=O)Nc3c(C)ccnc3C)cc2F)c1=O [Example 18, (S)-N-(2,4-Dimethylpyridin-3-yl)-6-(4-ethyl-3-(hydroxymethyl)-5-oxo-4,5-dihydro-1H-1,2,4-triazol-1-yl)-5-fluoro-2-((1,1,1-trifluoropropan-2-yl)oxy)nicotinamide]

EC50 (MOLM-13 cells): 6.5 nM
EC50 (human DHODH): 2.8 nM
SMILES: CCn1c(CO)nn(-c2nc(O[C@@H](C)C(F)(F)F)c(C(=O)Nc3cccnc3Cl)cc2F)c1=O [Example 4, (S)-N-(2-Chloropyridin-3-yl)-6-(4-ethyl-3-(hydroxymethyl)-5-oxo-4,5-dihydro-1H-1,2,4-triazol-1-yl)-5-fluoro-2-((1,1,1-trifluoropropan-2-yl)oxy)nicotinamide]

EC50 (MOLM-13 cells): 3.3 nM
EC50 (human DHODH): 2.2 nM
SMILES: CCn1c(CO)nn(-c2nc(O[C@@H](C)C(F)(F)F)c(C(=O)Nc3c(C)ccnc3C(F)F)cc2F)c1=O [Example 13, (S)-N-(2-(Difluoromethyl)-4-methylpyridin-3-yl)-6-(4-ethyl-3-(hydroxymethyl)-5-oxo-4,5-dihydro-1H-1,2,4-triazol-1-yl)-5-fluoro-2-((1,1,1-trifluoropropan-2-yl)oxy)nicotinamide]

EC50 (MOLM-13 cells): 0.938 nM
EC50 (human DHODH): 4.22 nM
SMILES: CCn1c(C(C)O)nn(-c2nc(O[C@@H](C)C(F)(F)F)c(C(=O)Nc3c(C)n[nH]c3C(F)(F)F)cc2F)c1=O (mixture of isomers) [Example 127, (Racemic)-6-[4-Ethyl-3-(1-hydroxyethyl)-5-oxo-1,2,4-triazol-1-yl]-5-fluoro-N-[3-methyl-5-(trifluoromethyl)-1H-pyrazol-4-yl]-2-(2,2,2-trifluoro-1-methyl-ethoxy)pyridine-3-carboxamide]

EC50 (MOLM-13 cells): 0.2 nM
EC50 (human DHODH): < 1.69 nM
SMILES: CCn1c(COC)nn(-c2nc(O[C@@H](C)C(F)(F)F)c(C(=O)Nc3c(F)cccc3Cl)cc2F)c1=O [Example 14, (S)-N-(2-Chloro-6-fluorophenyl)-6-(4-ethyl-3-(methoxymethyl)-5-oxo-4,5-dihydro-1H-1,2,4-triazol-1-yl)-5-fluoro-2-((1,1,1-trifluoropropan-2-yl)oxy)nicotinamide]
